Here are results for one substance from patent US20160000762A1, “IMPROVING COGNITIVE FUNCTION” (THE REGENTS OF THE UNIVERSITY OF CALIFORNIA, priority 2013, published 2016).

The test system of experiment [1] is primary hippocampal neurons. The experiment in a line: Synaptic marker immunostaining, primary hippocampal neurons. It is filed as cell-based, Sprague-Dawley rats. The settings on record: 5 μM, 24 h. How it is done: Primary neuron culture and immunostaining. Primary hippocampal neurons from E19 Sprague-Dawley rats were cultured at 150 cells/mm^2 as previously described (Pak et al., 2001). Neurons were transfected using Lipofectamine™ 2000 (Invitrogen, Carlsbad, Calif., USA) or calcium phosphate precipitation with GFP+PLL, GFP+APP shRNA, or GFP+APP and treated with BTA-EG4. The following antibodies were used: mouse anti-GFP (Novus Biologicals, 9F9.F9), rabbit anti-GFP (Invitrogen, A11122), rabbit anti-GluR1 (Calbiochem, PC246), mouse anti-GluR2 (BD Pharmagen, 556341), mouse anti-postsynaptic density (PSD)-95 (NeuroMabs, Davis, Calif., USA), mouse anti-Synaptophysin (Sigma Aldrich, s5768), rabbit APP N-terminal (Sigma-Aldrich, A8967), anti-Ras (BD Biosciences, 610001), anti-RasGRF1 (Santa Cruz, C-20; BD Biosciences, 610149), anti-ERK1/2 (Cell Signaling, 4695), anti-p-ERK1/2 (Invitrogen, 36880), anti-CREB (Cell Signaling, D76D11), anti-p-CREB (Millipore, 06-519), and mouse anti-c-Myc (Novus Biologicals, 9E10). Cultured hippocampal neuron images were acquired by LSM 510 laser scanning confocal microscope (Zeiss). Confocal zseries image stacks encompassing entire dendrite segments were analyzed using MetaMorph software (Universal Imaging Corporation, Downington, Pa., USA). […]

The test system of the next experiment is AMPAR and NMDAR subunits. The experiment in a line: Slice surface biotinylation, AMPAR and NMDAR subunits in CA1 slices. In kind it is in vivo, mice. As to the method: Slice surface biotinylation. Hippocampal slices (400 μm thick) were prepared as described above. CA3 and DG regions were cut away after the slice preparation to isolate CA1. After 30 min recovery at room temperature, the slices were transferred to 30° C. for additional 30 min recovery. The slices were then transferred to ice-cold ACSF for 10 min, and subsequently to ice-cold ACSF containing 1 mg/ml biotin (EZ-Link Sulfo-NHS-SS-Biotin, Pierce) saturated with 5% CO2/95% O2 for 15 min. The slices were then washed in tris-buffered saline (TBS: 50 mM Tris, 0.9% NaCl, pH 7.4) containing 100 mM glycine 5 times for 1 min each before homogenized in ice-cold 0.2% SDS/1% Triton X-100 IPB (20 mM Na3PO4, 150 mM NaCl, 10 mM EDTA, 10 mM EGTA, 10 mM Na4P2O7, 50 mM NaF, and 1 mM Na3VO4, pH 7.4; with […] okadaic acid and 10 KIU/ml aprotinin) by 30 gentle strokes using glass-Teflon tissue homogenizers (Pyrex). The homogenates were centrifuged for 10 min at 13,200×g, 4° C. Protein concentration of the supernatant was normalized to 0.6-1.5 mg/ml. Some of the supernatants were saved as inputs, and the remaining supernatant was mixed with neutravidin slurry [1:1 in 1% Triton X-100 IPB (TX-IPB)] and rotated overnight at 4° C. The neutravidin beads were isolated by brief centrifugation at 1,000×g, and washed 3×1% TX-IPB, 3×1% TX-IPB+500 mM NaCl, followed by 2×1% TX-IPB. The biotinylated surface proteins were then eluded from the neutravidin beads by rotating at room temperature for 15 min in gel sample buffer with 2 mM DTT. The input (total homogenate) and biotinylated samples (surface fraction) were run on separate gels, and processed for immunoblot analysis using GluA1 (sc-55509, Santa Cruz), GluA2/3 (07-598, Upstate/Millipore), GluN1 (a gift from Dr. R. Huganir), GluN2A (07-632, Upstate/Millipore), and GluN2B (71-8600, Invitrogen) antibodies. NMDAR subunit blots were developed using enhanced chemifluorescence substrate (ECF™ substrate, Amersham). AMPAR blots were probed simultaneously with GluR1 and GluR2/3 antibodies followed by second antibodies linked to Cy5 and Cy3. All blots were scanned using TYPHOON™ 9400 (GE Health), and quantified using Image Quant TL software (GE Health). The signal of each sample on a blot was normalized to the average signal from the control group to obtain the % of average control values, which were compared across groups using unpaired Student's t-test.
To test whether the increase in functional excitatory synapses is via cell surface recruitment of glutamate receptors, we performed steady-state surface biotinylation using acute hippocampal slices obtained from mice injected with BTA-EG4 (30 mg/kg) or control vehicle for 2 weeks. Both the cell surface and total levels of major AMPAR subunits GluA1 and GluA2, as well as NMDAR subunits GluN1, GluN2A and GluN2B, were quantified.

Experiment [2] concerns insulin-degrading enzyme (IDE), neprilysin (NPE). The experiment in a line: Levels of Aβ degradation enzymes (data not shown).
A short description of experiment [3]: Morris Water Maze, 3× Tg AD mice. In kind it is in vivo. The settings on record: for escape latency during training trials: 30 mg/kg daily, 2 weeks. As to the method: Morris Water Maze. To examine the effects of BTA-EG4 on learning and memory, we injected 2-3 month old, 6-10 month old, and 13-16 month old 3× Tg AD mice daily (i.p.) for 2 weeks before beginning behavioral testing as described previously (Minami et al., 2012). The control groupw as treated with vehicle solution (10% DMSO) while the experimental group was treated with BTA-EG4 (30 mg/kg) daily for 2 weeks. Animals were kept on a fixed 12 hour light-dark cycle, and behavioral experiments were conducted during the light portion of this cycle. Specifically, experiments began at 9:30 AM and concluded before 4:00 PM. Briefly, the amount of time required for animals to locate a Plexiglas platform submerged in opaque water was measured in a large circular pool. The animal was randomly placed into one of four quadrants separated by 90°, and the platform was hidden in one of these quadrants (14 in. from the wall). TOPSCAN software tracked the time required (latency, limited to 60 s) to locate the hidden platform, and animals failing to locate the platform within 60 s were gently guided to the platform. On the first trial, animals were allowed to remain on the platform for 15 s. All subsequent trials limited platform time to 10 s, and a probe trial (60 s) was administered 24 h after the final learning trial. Time spent in the quadrant where the platform was previously located and number of platform crossings were recorded during this probe trial. As a control, 12 h after the last trial, animals were required to locate a clearly visible black platform placed in a new location.

Take BTA-EG4: in experiment [1], the “number of puncta stained for PSD-95” value was “increased” and the “number of puncta stained for synaptophysin” value is “increased”. The “cell surface or total expression of GluA1, GluA2, GluN1, GluN2A, GluN2B” value with AMPAR and NMDAR subunits (30 mg/kg, 2 weeks) is listed as “no significant change”. Further, the GluA1/β-actin ratio with AMPAR and NMDAR subunits (total homogenate, CTRL=0.96±0.10) was determined as 1.06±0.12. The GluA2/β-actin ratio in the experiment on AMPAR and NMDAR subunits (total homogenate, CTRL=0.98±0.09) was 1.27±0.14. The GluN1/β-actin ratio with AMPAR and NMDAR subunits (total homogenate, CTRL=0.98±0.12) is listed as 1.27±0.05. Also, the GluN2B/β-actin ratio in the experiment on AMPAR and NMDAR subunits (total homogenate, CTRL=1.02±0.11) was found to be 1.33±0.14. Further, in the experiment on AMPAR and NMDAR subunits (total homogenate, CTRL=1.03±0.08), the GluN2A/β-actin ratio was determined as 1.04±0.14. In addition, in experiment [2], the “levels of Aβ degradation enzymes (IDE, NPE)” value is “did not alter”. In addition, in experiment [3] (2-3 months), the swim speed entry is recorded as “without differing” and the “escape latency during training trials” value is listed as “significantly faster”. For the same substance, in experiment [3] (2-3 months, probe trials), the “percentage of time in the target quadrant” value was “greater percentage” and the platform crossings entry is on record as “more platform crossings”. Besides, the “escape latency during training trials” value in experiment [3] (6-10 months) is reported as “faster”. Further, in experiment [3] (6-10 months, probe trials), the “number of platform crossings” value is given as “without changes” and the “percentage of time spent in the target quadrant” value was “significantly improved”. Moreover, in experiment [3] (13-16 months), the “measured Morris Water Maze parameters (escape latency, swim speed, target quadrant time, platform crossings)” value is “none of the measured parameters were significantly altered”.
